Measurements from US9657033B2, “Tetrahydronaphthyridine and related bicyclic compounds for inhibition of RORγ activity and the treatment of disease” (Merck Sharp & Dohme Corp., priority 2012, dated 2017).
Counter-ions that a name gives are not always drawn.

Target: RORγ-LBD (Homo sapiens (Human), UniProt P51449)
Assay: RORγ-Ligand Binding Domain (LBD) TR-FRET Assay Protocol II
Format: biochemical
Conditions: purified RORγ-LBD, SRC1 peptide, overnight at 4° C.
Experimental: Part II—Procedures for RORγ-Ligand Binding Domain TR-FRET Assay Protocol II
HIS-tagged RORγ-LBD protein was expressed in SF9 cells using a baculovirus expression system. The RORγ-LBD protein was purified by […]. Separately, SF9 cells not expressing recombinant protein were lysed in TBS buffer (25 mM Tris, pH 8.0, 150 mM NaCl) under sonication. The lysate was added to the purified RORγ-LBD in a volume equivalent of 0.75 μL lysate (from 30,000 SF9 cells) per 75 femtomol of RORγ-LBD protein. The resulting mixture was diluted in assay buffer (50 mM Tris pH 7.0, 50 mM KCl, 1 mM EDTA, 0.1 mM DTT, 0.01% BSA) to obtain RORγ-LBD protein at a final concentration of 3 nM.
Compounds to be tested were injected to the assay plate using Acoustic Droplet Ejection technology by Echo 550 liquid handler (Labcyte, Calif.).
A stock of biotinylated-LXXLL peptide from coactivator SRC1 (Biotin-[…]) was prepared in assay buffer and added to each well (100 nM final concentration). A solution of Europium tagged anti-HIS antibody (1.25 nM final concentration) and APC-conjugated streptavidin (8 nM final concentration) were also added to each well.
The final assay mixture was incubated overnight at 4° C., and the fluorescence signal was measured on an Envision plate reader: (Excitation filter=340 nm; APC emission=665 nm; Europium emission=615 nm; dichroic mirror=D400/D630; delay time=100 μs, integration time=200 μs). The EC50 value for test compounds was calculated from the quotient of the fluorescence signal at 665 nm divided by the fluorescence signal at 615 nm

Sequence of RORγ-LBD (P51449 269-508): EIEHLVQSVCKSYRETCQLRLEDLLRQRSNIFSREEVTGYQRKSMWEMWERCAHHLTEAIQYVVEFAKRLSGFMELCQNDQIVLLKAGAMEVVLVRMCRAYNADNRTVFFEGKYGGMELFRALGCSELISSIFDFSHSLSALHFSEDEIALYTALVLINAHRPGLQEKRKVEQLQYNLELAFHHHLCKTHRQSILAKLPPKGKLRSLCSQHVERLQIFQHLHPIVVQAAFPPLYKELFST

Row | Structure (SMILES) | EC50
1 | O=C(Nc1cnc2c(c1)N(S(=O)(=O)c1cccc(C(F)(F)F)c1)C[C@H](N1CCCC1=O)C2)c1c(Cl)cccc1Cl [Compound 82] | 12 nM
2 | CC(C)OC(=O)N[C@@H]1Cc2ncc(NC(=O)c3c(Cl)cccc3Cl)cc2N(S(=O)(=O)c2cccc(C(F)(F)F)c2)C1 [Compound 58] | 13 nM
3 | C[C@H](O)C(=O)N[C@H]1Cc2ncc(NC(=O)c3c(Cl)cccc3Cl)cc2N(S(=O)(=O)c2cccc(C(F)(F)F)c2)C1 [Compound 52] | 74 nM
4 | CC(=O)NC1Cc2ncc(NC(=O)c3c(Cl)cccc3Cl)cc2N(S(=O)(=O)c2cccc(Cl)c2)C1 (stereo not drawn) [Compound 46] | 72 nM
5 | Cc1nn(C(F)F)cc1S(=O)(=O)N1C[C@@H](CN2CC[C@@H](O)C2)Cc2ncc(NC(=O)[C@@H](C)C(C)(C)C)cc21 [Compound 96, (S)-N-((R)-5-((1-(difluoromethyl)-3-methyl-1H-pyrazol-4-yl)sulfonyl)-7-(((R)-3-hydroxypyrrolidin-1-yl)methyl)-5,6,7,8-tetrahydro-1,5-naphthyridin-3-yl)-2,3,3-trimethylbutanamide] | 168 nM
6 | C[C@H](N)C(=O)N[C@@H]1Cc2ncc(NC(=O)c3c(Cl)cccc3Cl)cc2N(S(=O)(=O)c2cccc(C(F)(F)F)c2)C1 [Compound 55] | 32 nM
7 | N[C@H]1Cc2ncc(NC(=O)c3c(Cl)cccc3Cl)cc2N(S(=O)(=O)c2cccc(C(F)(F)F)c2)C1 [Compound 53] | 25 nM
8 | C[C@H]1CN(S(=O)(=O)c2cccc(C3CC3)c2)c2cc(NC(=O)c3c(Cl)cccc3Cl)cnc2O1 [Compound 35] | 7 nM
9 | CN(C)C(=O)NC1Cc2ncc(NC(=O)c3c(Cl)cccc3Cl)cc2N(S(=O)(=O)c2cccc(C(F)(F)F)c2)C1 (stereo not drawn) [Compound 48] | 10 nM
10 | NC1Cc2ncc(NC(=O)c3c(Cl)cccc3Cl)cc2N(S(=O)(=O)c2cccc(C3CC3)c2)C1 (stereo not drawn) [Compound 70] | 38 nM
11 | CCOC(=O)N[C@H]1Cc2ncc(NC(=O)c3c(Cl)cccc3Cl)cc2N(S(=O)(=O)c2cccc(C(F)(F)F)c2)C1 [Compound 63] | 26 nM
12 | Cc1cccc(S(=O)(=O)N2CC(N(C)C)COc3ncc(NC(=O)c4c(Cl)cccc4Cl)cc32)c1 (stereo not drawn) [Compound 76, 2,6-dichloro-N-[7-dimethylamino-5-(toluene-3-sulfonyl)-5,6,7,8-tetrahydro-9-oxa-1,5-diaza-benzocyclohepten-3-yl]-benzamide] | 98 nM
13 | CC(C)(C)OC(=O)NC1Cc2ncc(NC(=O)c3c(Cl)cccc3Cl)cc2N(S(=O)(=O)c2cccc(C3CC3)c2)C1 (stereo not drawn) [Compound 69] | 13 nM
14 | Cc1nn(C(F)F)cc1S(=O)(=O)N1C[C@@H](NC(=O)C(F)(F)F)Cc2ncc(NC(=O)c3c(F)cccc3Cl)cc21 [Compound 49] | 12 nM
15 | C[C@H](N)C(=O)N[C@H]1Cc2ncc(NC(=O)c3c(Cl)cccc3Cl)cc2N(S(=O)(=O)c2cccc(C(F)(F)F)c2)C1 [Compound 51] | 852 nM
16 | CC(C)(C)OC(=O)N[C@H]1Cc2ncc(NC(=O)c3c(Cl)cccc3Cl)cc2N(S(=O)(=O)c2cccc(C(F)(F)F)c2)C1 [Compound 54] | 17 nM
17 | CN(C)C[C@H]1CN(S(=O)(=O)c2cccc(Cl)c2)c2cc(NC(=O)c3c(Cl)cccc3Cl)cnc2O1 [Compound 88] | 42 nM
18 | CN1CC(=O)N(C[C@H]2CN(S(=O)(=O)c3cccc(Cl)c3)c3cc(NC(=O)c4c(Cl)cccc4Cl)cnc3O2)C1=O [Compound 86, (S)-2,6-dichloro-N-(1-((3-chlorophenyl)sulfonyl)-3-((3-methyl-2,5-dioxoimidazolidin-1-yl)methyl)-2,3-dihydro-1H-pyrido[2,3-b][1,4]oxazin-7-yl)benzamide] | 10 nM
19 | O=C(Nc1cnc2c(c1)N(S(=O)(=O)c1cccc(Cl)c1)C[C@H](CN1CCOCC1)O2)c1c(Cl)cccc1Cl [Compound 90] | 30 nM
20 | COC(=O)N[C@@H]1Cc2ncc(NC(=O)c3c(Cl)cccc3Cl)cc2N(S(=O)(=O)c2cccc(C)c2)C1 [Compound 42, (R)-methyl (7-(2,6-dichlorobenzamido)-1-(m-tolylsulfonyl)-1,2,3,4-tetrahydro-1,5-naphthyridin-3-yl)carbamate] | 25 nM
21 | CCOC(=O)N[C@@H]1Cc2ncc(NC(=O)c3c(Cl)cccc3Cl)cc2N(S(=O)(=O)c2cccc(C(F)(F)F)c2)C1 [Compound 64] | 18 nM
22 | Cc1cccc(S(=O)(=O)N2C[C@H](C)Oc3ncc(NC(=O)C(C)c4ccc(Cl)cc4)cc32)c1 (stereo partly drawn) [Compound 34] | 108 nM
23 | CC(=O)N[C@@H]1Cc2ncc(NC(=O)c3c(Cl)cccc3Cl)cc2N(S(=O)(=O)c2cccc(C)c2)C1 [Compound 41, (R)-N-(7-acetamido-5-(m-tolylsulfonyl)-5,6,7,8-tetrahydro-1,5-naphthyridin-3-yl)-2,6-dichlorobenzamide] | 18 nM
24 | CC(=O)NC1Cc2ncc(NC(=O)c3c(Cl)cccc3Cl)cc2N(S(=O)(=O)c2cccc(C3CC3)c2)C1 (stereo not drawn) [Compound 68] | 25 nM
25 | O=C(Nc1cnc2c(c1)N(S(=O)(=O)c1cccc(C(F)(F)F)c1)C[C@@H](N1CCCC1=O)C2)c1c(Cl)cccc1Cl [Compound 81] | 35 nM

More lines, in order of falling EC50, values ahead:

Row | EC50 | Structure (SMILES)
26 | 10000 nM | Cc1nn(C(F)F)cc1S(=O)(=O)N1C[C@H](CO)Cc2ncc(NC(=O)[C@@H](C)C(C)(C)C)cc21 [Compound 92, (S)-N-((R)-5-((1-(difluoromethyl)-3-methyl-1H-pyrazol-4-yl)sulfonyl)-7-(hydroxymethyl)-5,6,7,8-tetrahydro-1,5-naphthyridin-3-yl)-2,3,3-trimethylbutanamide]
27 | 291 nM | CC(=O)NC1COc2ncc(NC(=O)c3c(Cl)cccc3Cl)cc2N(S(=O)(=O)c2cccc(C)c2)C1 (stereo not drawn) [Compound 75, N-[7-acetylamino-5-(toluene-3-sulfonyl)-5,6,7,8-tetrahydro-9-oxa-1,5-diaza-benzocyclohepten-3-yl]-2,6-dichloro-benzamide]
28 | 174 nM | Cc1cccc(S(=O)(=O)N2CC(N)COc3ncc(NC(=O)c4c(Cl)cccc4Cl)cc32)c1 (stereo not drawn) [Compound 74, N-[7-amino-5-(toluene-3-sulfonyl)-5,6,7,8-tetrahydro-9-oxa-1,5-diaza-benzocyclohepten-3-yl]-2,6-dichloro-benzamide]
29 | 152 nM | CCC(C)C(=O)Nc1cnc2c(c1)N(S(=O)(=O)c1cccc(C)c1)C[C@H](C)O2 (stereo partly drawn) [Compound 33]
30 | 52 nM | CN1CCN(C[C@H]2CN(S(=O)(=O)c3cccc(Cl)c3)c3cc(NC(=O)c4c(Cl)cccc4Cl)cnc3O2)CC1=O [Compound 87, (S)-2,6-dichloro-N-(1-((3-chlorophenyl)sulfonyl)-3-((4-methyl-3-oxopiperazin-1-yl)methyl)-2,3-dihydro-1H-pyrido[2,3-b][1,4]oxazin-7-yl)benzamide]
31 | 31 nM | Cc1nn(C(F)F)cc1S(=O)(=O)N1C[C@H](NC(=O)C(F)(F)F)Cc2ncc(NC(=O)c3c(F)cccc3Cl)cc21 [Compound 50]
32 | 26 nM | O=C(Nc1ccc2c(c1)N(S(=O)(=O)c1cccc(Cl)c1)C[C@H](CN1CCCC1=O)O2)c1c(Cl)cccc1Cl [Compound 80, 2,6-dichloro-N-[(S)-4-(3-chloro-benzenesulfonyl)-2-(2-oxopyrrolidin-1-ylmethyl)-3,4-dihydro-2H-benzo[1,4]oxazin-6-yl]-benzamide]
33 | 25 nM | Cc1cccc(S(=O)(=O)N2C[C@H](NC(=O)OC(C)(C)C)Cc3ncc(NC(=O)c4c(Cl)cccc4Cl)cc32)c1 [Compound 39, (R)-tert-butyl (7-(2,6-dichlorobenzamido)-1-(m-tolylsulfonyl)-1,2,3,4-tetrahydro-1,5-naphthyridin-3-yl)carbamate]
34 | 24 nM | CC(=O)NC[C@H]1CN(S(=O)(=O)c2cccc(C3CC3)c2)c2cc(NC(=O)c3c(Cl)cccc3Cl)cnc2O1 [Compound 43]
35 | 20 nM | O=C(Nc1cnc2c(c1)N(S(=O)(=O)c1cccc(Cl)c1)C[C@H](CN1C(=O)COC1=O)O2)c1c(Cl)cccc1Cl [Compound 85]
36 | 20 nM | Cc1cccc(S(=O)(=O)N2CC(CO)Cc3ncc(NC(=O)c4c(Cl)cccc4Cl)cc32)c1 (stereo not drawn) [Compound 94, 2,6-dichloro-N-(7-(hydroxymethyl)-5-(m-tolylsulfonyl)-5,6,7,8-tetrahydro-1,5-naphthyridin-3-yl)benzamide]
37 | 18 nM | Cc1cccc(S(=O)(=O)N2C[C@H](N)Cc3ncc(NC(=O)c4c(Cl)cccc4Cl)cc32)c1 [Compound 40, (R)-N-(7-amino-5-(m-tolylsulfonyl)-5,6,7,8-tetrahydro-1,5-naphthyridin-3-yl)-2,6-dichlorobenzamide trifluoroacetic acid salt]
38 | 13 nM | Cc1cccc(S(=O)(=O)N2CC(N)COc3ncc(NC(=O)C(F)(F)F)cc32)c1 (stereo not drawn) [Compound 71, N-[7-amino-5-(toluene-3-sulfonyl)-5,6,7,8-tetrahydro-9-oxa-1,5-diaza-benzocyclohepten-3-yl]-2,2,2-trifluoro-acetamide]
39 | 9 nM | Cc1nn(C(F)F)cc1S(=O)(=O)N1C[C@@H](NC(=O)OC(C)C)Cc2ncc(NC(=O)c3c(F)cccc3Cl)cc21 [Compound 65]
